In patent publication US6514980B1, “Nucleoside analogs in combination therapy of herpes simplex infections” (Novartis International Pharmaceutical Ltd., priority 1996, dated 2003):

Tested on: HSV-1 (SC16)
Assay: Cutaneous HSV-1 infection of the ear pinna in mice immunosuppressed with Cyclosporin A (second experiment)
Type: in vivo
Conditions: BALB/c mice immunosupressed with Cyclosporin A (second experiment) compared with immunocompetant mice (first experiment); oral antiviral treatment
Protocol: A cutaneous infection was established by inoculation of the ear pinnae of mice with HSV-1 (SC16) and the effects of oral famciclovir and valaciclovir on the latent virus infection was investigated.
BALB/c female mice (Bantin and Kingman, Kingston, Hull, UK) were purchased at 3 to 4 weeks old and inoculated one week later. Virus suspension (10 ul) containing 5×10^4 p.f.u. were inoculated into the skin of the left ear pinna. Skin thickness was measured daily in individual mice by means of an Engineers' micrometer screw gauge. (ref. Nash et al, 1980, J. Gen. Virol. 48, 351-357). Mice were killed daily and tissues removed for virus assays. Other mice were […]. The trigeminal ganglia and cervical dorsal root ganglia were removed and co-cultivated. Those cultures showing virus replication were recorded as positive.
In a first experiment, groups of immunocompetant mice were untreated (control), antiviral treatment was initiated on days 1, 2, 3, 4 or 5 post-infection (p.i.) and ceased on day 10 p.i.. The compounds were administered ad libitum in the drinking water, at 1 mg/ml (approximately 100 mg/kg/day).
In a second experiment, mice were immunosupressed with Cyclosporin A (CyA) from day-2 to day=10 (day 0 being the day of infection). […]

SMILES	effect on virus replication and disease
CC(=O)OCC(CCn1cnc2cnc(N)nc21)COC(C)=O [famciclovir]	significantly greater effect
CC(C)[C@H](N)C(=O)OCCOCn1cnc2c(=O)[nH]c(N)nc21 [valaciclovir]	significantly greater effect
